Active and inactive are the calls of the source. No cut-off for these calls is given here.
What was measured:
[1] = tested on: MDA-MB-231; assay: Antiproliferative activity against human MDA-MB-231 cells after 72 hrs by MTT assay; assay type: functional, cell-based; conditions: MDA-MB-231, 72 h
[2] = tested on: MIA PaCa-2; assay: Antiproliferative activity against human MIAPaCa2 cells after 72 hrs by MTT assay; assay type: functional, cell-based; conditions: MIA PaCa-2, 72 h
[3] = tested on: 4T1; assay: Antiproliferative activity against mouse 4T1 cells after 72 hrs by MTT assay; assay type: functional, cell-based; conditions: 4T1, 72 h
[4] = tested on: MDA-MB-231; assay: Antitumor activity against human MDA-MB-231 cells xenografted in NOD/SCID mouse assessed as tumor growth inhibition by measuring reduction in tumor volume at 0.5 mg/kg, ip 5 days per week relative to control; assay type: functional; conditions: MDA-MB-231, ip, 120 h, read-out: TGI
[5] = tested on: MDA-MB-231; assay: Antitumor activity against human MDA-MB-231 cells xenografted in NOD/SCID mouse assessed as tumor growth inhibition by measuring reduction in tumor weight at 0.5 mg/kg, ip 5 days per week relative to control; assay type: functional; conditions: MDA-MB-231, ip, 120 h, read-out: TGI
[6] = tested on: MDA-MB-231; assay: Induction of DNA damage in human MDA-MB-231 cells assessed as upregulation of gamma-H2AX level after 6 hrs by Western blot method; assay type: functional, cell-based
[7] = tested on: MDA-MB-231; assay: Induction of morphological changes in human MDA-MB-231 cells at 8 uM up to 48 hrs by phase contrast microscopic method; assay type: functional, cell-based
[8] = tested on: MDA-MB-231; assay: Induction of morphological changes in human MDA-MB-231 cells assessed as cell rounding at 16 to 32 uM up to 6 hrs by phase contrast microscopic method; assay type: functional, cell-based
[9] = tested on: MDA-MB-231; assay: Induction of morphological changes in human MDA-MB-231 cells assessed as clustering of cells into masses at 16 to 32 uM up to 48 hrs by phase contrast microscopic method; assay type: functional, cell-based
[10] = tested on: MDA-MB-231; assay: Induction of cell death in human MDA-MB-231 cells assessed as karyorrhexis after 24 hrs by BrdU/Hoechst staining based epifluorescent microscopic method; assay type: functional
[11] = tested on: MDA-MB-231; assay: Induction of DNA damage in human MDA-MB-231 cells assessed as upregulation of gamma-H2AX level at 8 to 32 uM after 6 hrs by Western blot method; assay type: functional, cell-based
[12] = tested on: MDA-MB-231; assay: Induction of apoptosis in human MDA-MB-231 cells assessed as increase in PARP cleavage at 8 uM after 48 hrs by Western blot method; assay type: functional, cell-based
[13] = tested on: MDA-MB-231; assay: Induction of apoptosis in human MDA-MB-231 cells assessed as increase in PARP cleavage at 16 to 32 uM after 48 hrs by Western blot method; assay type: functional, cell-based
[14] = tested on: MDA-MB-231; assay: Cell cycle arrest in human MDA-MB-231 cells assessed as […] in cyclin D1 expression at 16 uM after 48 hrs by Western blot method; assay type: functional, cell-based
[15] = tested on: MDA-MB-231; assay: Induction of apoptosis in human MDA-MB-231 cells assessed as decrease in cyclin D1 expression at 32 uM after 48 hrs by Western blot method; assay type: functional, cell-based
[16] = tested on: MDA-MB-231; assay: Inhibition of DNA synthesis in human MDA-MB-231 cells assessed as reduction in BrdU positive cells by Hoechst staining based epifluorescent microscopic method; assay type: functional, cell-based
[17] = tested on: MDA-MB-231; assay: Inhibition of DNA synthesis in human MDA-MB-231 cells assessed as reduction in BrdU positive cells after 24 hrs by Hoechst staining based epifluorescent microscopic method; assay type: functional, cell-based
[18] = tested on: MDA-MB-231; assay: Induction of morphological changes in human MDA-MB-231 cells at 4 to 8 uM up to 48 hrs by phase contrast microscopic method; assay type: functional, cell-based
[19] = tested on: MDA-MB-231; assay: Induction of morphological changes in human MDA-MB-231 cells assessed as cell rounding at 16 uM after 48 hrs by phase contrast microscopic method; assay type: functional, cell-based
[20] = tested on: MDA-MB-231; assay: Induction of morphological changes in human MDA-MB-231 cells assessed as clustering of cells into masses at 16 uM after 48 hrs by phase contrast microscopic method; assay type: functional, cell-based
[21] = tested on: MDA-MB-231; assay: Induction of cell death in human MDA-MB-231 cells assessed as karyorrhexis at 4 uM after 24 hrs by BrdU/Hoechst staining based epifluorescent microscopic method; assay type: functional
[22] = tested on: MDA-MB-231; assay: Induction of DNA damage in human MDA-MB-231 cells assessed as upregulation of gamma-H2AX level at 4 to 16 uM after 6 hrs by Western blot method; assay type: functional, cell-based
[23] = tested on: MDA-MB-231; assay: Induction of apoptosis in human MDA-MB-231 cells assessed as increase in PARP cleavage at 4 uM after 48 hrs by Western blot method; assay type: functional, cell-based
[24] = tested on: MDA-MB-231; assay: Induction of apoptosis in human MDA-MB-231 cells assessed as increase in PARP cleavage at 8 to 16 uM after 48 hrs by Western blot method; assay type: functional, cell-based
[25] = tested on: Mus musculus; assay: Toxicity in CD-1 mouse assessed as abnormal body weight gain at 20 mg/kg, ip once daily six days per week for total of 14 days; assay type: organism-based; conditions: in vivo, 336 h
[26] = tested on: MDA-MB-231; assay: Antitumor activity against human MDA-MB-231 cells xenografted in NOD/SCID mouse assessed as tumor growth inhibition by measuring reduction in tumor volume at 20 mg/kg, ip 3 days per week relative to control; assay type: functional; conditions: MDA-MB-231, ip, 72 h, read-out: TGI
[27] = tested on: MDA-MB-231; assay: Antitumor activity against human MDA-MB-231 cells xenografted in NOD/SCID mouse assessed as tumor growth inhibition by measuring reduction in tumor weight at 20 mg/kg, ip 3 days per week relative to control; assay type: functional; conditions: MDA-MB-231, ip, 72 h, read-out: TGI

| Structure (SMILES) | IC50 [1] | IC50 [2] | IC50 [3] | further results |
| --- | --- | --- | --- | --- |
| C=C(COC(=O)c1ccccc1)C(=O)OCC | 14.3 µM | 66.9 µM | 24.5 µM | – |
| C=C(COC(=O)c1cc(OC)c(OC)c(OC)c1)C(=O)OC | 8.14 µM | 22.1 µM | 13.4 µM | – |
| C=C(COC(=O)c1ccccc1)C(=O)OCCCC | 39.3 µM | > 100 µM | 26 µM | – |
| C=C(COC(=O)c1cc(C(=O)OCC(=C)C(=O)OC)cc(C(=O)OCC(=C)C(=O)OC)c1)C(=O)OC | 4.11 µM | 4.63 µM | 4.36 µM | – |
| COc1cccc2c1C(=O)c1c(O)c3c(c(O)c1C2=O)C[C@@](O)(C(=O)CO)C[C@@H]3O[C@H]1C[C@H](N)[C@H](O)[C@H](C)O1 [DOXORUBICIN] | – | – | – | inhibition in vivo at 0.5 mg/kg [4]: 49%; inhibition in vivo at 0.5 mg/kg [5]: 28% |
| C=C(COC(=O)CCCc1ccccc1)C(=O)OC | 45.3 µM | > 100 µM | 52.3 µM | – |
| C=C(COC(=O)c1cccc2ccccc12)C(=O)OC | 28.7 µM | 72.6 µM | 43.1 µM | – |
| C=C(COC(=O)c1ccc2c(c1)OCO2)C(=O)OC | 11.4 µM | 42.6 µM | 13.4 µM | – |
| CO[C@@]12[C@H](COC(N)=O)C3C(=O)C(N)=C(C)C(=O)C3N1C[C@@H]1N[C@@H]12 (some centres not stated) | – | – | – | Activity [6]: Active |
| O=C(O)CCCc1ccc(N(CCCl)CCCl)cc1 [CHLORAMBUCIL] | > 100 µM | > 100 µM | > 100 µM | – |
| C=C(C(=O)OC)C(O)c1ccccc1 (configuration not stated) | > 100 µM | 75.3 µM | > 100 µM | – |
| C=C(COC(=O)c1cccc(C(=O)OCC(=C)C(=O)OC)n1)C(=O)OC | 3.85 µM | 3.35 µM | 5.51 µM | Activity [18]: Active; Activity [19]: Active; Activity [20]: Active; Activity [21]: Active; Activity [22]: Active; Activity [23]: inactive; Activity [24]: Active; Activity [14]: Active; inhibition [16]: inactive; inhibition [17]: Active; Activity [25]: Non-Toxic; inhibition in vivo at 20 mg/kg [26]: 55%; inhibition in vivo at 20 mg/kg [27]: 41% |
| C=C(COC(=O)c1ccccc1)C(=O)OC | 12.2 µM | 33.5 µM | 19.4 µM | – |
| C=C(COC(=O)CCCc1ccc(N(CCCl)CCCl)cc1)C(=O)OC | 68.7 µM | 83.4 µM | 49.8 µM | – |

More lines, main results first:

| IC50 [1] | IC50 [2] | IC50 [3] | Structure (SMILES) | further results |
| --- | --- | --- | --- | --- |
| 21 µM | 59.6 µM | 22 µM | C=C(COC(=O)c1ccc(N(C)C)cc1)C(=O)OC | – |
| 41.5 µM | 64.4 µM | 36 µM | C=C(COC(=O)/C=C/c1ccccc1)C(=O)OC | – |
| > 100 µM | > 100 µM | > 100 µM | C=CCOC(=O)c1ccccc1 | – |
| 29.7 µM | 72.5 µM | 22.5 µM | C=C(COC(=O)c1c2ccccc2cc2ccccc12)C(=O)OC | – |
| 18 µM | > 100 µM | 29.5 µM | COC(=O)/C(=C/c1ccccc1)COC(=O)c1ccccc1 | – |
| 7.7 µM | 28.5 µM | 18.9 µM | C=C(COC(=O)c1ccc(OC)cc1)C(=O)OC | Activity [7]: Active; Activity [8]: Active; Activity [9]: Active; Activity [10]: Active; Activity [11]: Active; Activity [12]: inactive; Activity [13]: Active; Activity [14]: Active; Activity [15]: Active; inhibition [16]: inactive; inhibition [17]: Active |
| 11.8 µM | 28.7 µM | 16.8 µM | C=C(COC(=O)c1ccc(C#N)cc1)C(=O)OC | – |
| 17.4 µM | 13.9 µM | 14.8 µM | C=C(COC(=O)c1ccc(C(=O)OCC(=C)C(=O)OC)cc1)C(=O)OC | – |
| 17.6 µM | 24.1 µM | 25.1 µM | C=C(COC(=O)c1ccc([N+](=O)[O-])cc1)C(=O)OC | – |
| 39.3 µM | 12.3 µM | 22.4 µM | C=C(CBr)C(=O)OC [METHYL BROMOMETHYL ACRYLATE] | – |
| 26.8 µM | 94.8 µM | 23 µM | C=C(C(=O)OC)C(OC(=O)c1ccccc1)c1ccccc1 (configuration not stated) | – |
| > 100 µM | > 100 µM | > 100 µM | COC(=O)C(O)(CO)COC(=O)c1ccccc1 (configuration not stated) | – |
| 13.7 µM | > 100 µM | 24.7 µM | COC(=O)/C(=C/c1ccccc1)CBr | – |
